System: 22GT (DNA, G4) GGGTTAGGGTTAGGGTTAGGGT
Assay: ITC, global fit of coupled folding/binding model
Details: 100 mM K+; 1 mM cacodylate, 0.02 mM EDTA, pH 6.9, 3% DMSO, 25 °C; site 1 of 2 (intermediate I)

- ΔG°: -9.6 ± 0.6 kcal/mol
SMILES: C[n+]1cc(NC(=O)c2cccc(C(=O)Nc3cc4ccccc4[n+](C)c3)n2)cc2ccccc21
